Assay results from patent US20210269451A1, “PYRIDINYL HETEROCYCLYL COMPOUNDS FOR THE TREATMENT OF AUTOIMMUNE DISEASE” (Hoffmann-La Roche Inc., priority 2018, published 2021).
pIC50: −log10 of the molar value.

Target: T1, human TLR7 (Homo sapiens, UniProt Q9NYK1)
T1 construct: host or cells: HEK293-Blue-hTLR-7 (HEK293)
T1 sequence (Q9NYK1 27-1049): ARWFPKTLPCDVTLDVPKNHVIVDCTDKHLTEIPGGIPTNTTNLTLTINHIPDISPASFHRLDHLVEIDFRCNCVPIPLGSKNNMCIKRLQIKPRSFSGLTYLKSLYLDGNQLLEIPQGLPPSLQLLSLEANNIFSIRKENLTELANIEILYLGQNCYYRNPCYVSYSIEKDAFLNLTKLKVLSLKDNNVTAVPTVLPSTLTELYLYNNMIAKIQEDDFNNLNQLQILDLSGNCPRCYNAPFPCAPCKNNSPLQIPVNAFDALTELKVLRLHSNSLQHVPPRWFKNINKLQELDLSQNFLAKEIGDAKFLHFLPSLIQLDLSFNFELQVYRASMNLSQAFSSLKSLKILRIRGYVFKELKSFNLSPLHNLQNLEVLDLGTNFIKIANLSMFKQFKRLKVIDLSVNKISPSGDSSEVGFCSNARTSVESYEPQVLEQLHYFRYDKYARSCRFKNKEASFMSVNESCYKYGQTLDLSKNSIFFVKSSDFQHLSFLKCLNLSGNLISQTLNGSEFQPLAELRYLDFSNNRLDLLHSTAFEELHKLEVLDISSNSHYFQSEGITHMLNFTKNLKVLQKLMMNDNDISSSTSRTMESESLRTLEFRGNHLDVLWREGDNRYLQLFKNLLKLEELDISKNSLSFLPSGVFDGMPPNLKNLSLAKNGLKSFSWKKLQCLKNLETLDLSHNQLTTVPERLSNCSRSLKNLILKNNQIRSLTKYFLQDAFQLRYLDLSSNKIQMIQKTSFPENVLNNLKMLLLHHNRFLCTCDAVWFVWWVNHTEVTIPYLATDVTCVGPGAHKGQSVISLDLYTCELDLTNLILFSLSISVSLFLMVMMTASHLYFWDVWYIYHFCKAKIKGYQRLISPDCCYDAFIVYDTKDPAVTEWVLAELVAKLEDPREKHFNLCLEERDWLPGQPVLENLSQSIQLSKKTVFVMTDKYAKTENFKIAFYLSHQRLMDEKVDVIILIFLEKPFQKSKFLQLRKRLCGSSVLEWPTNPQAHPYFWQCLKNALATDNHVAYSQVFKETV
Assay: HEK293-Blue-hTLR-7 cells assay
Format: cell-based
Conditions: HEK293-Blue-hTLR7 cells, R848 stimulation, 20 hrs, SEAP reporter; read-out: HEK/hTLR7 IC50
Description: The following tests were carried out in order to determine the activity of the compounds of formula (I) and (Ia) in HEK293-Blue-hTLR-7/8/9 cells assay.
HEK293-Blue-hTLR-7 cells assay:
A stable HEK293-Blue-hTLR-7 cell line was purchased from InvivoGen (Cat. #: hkb-htlr7, San Diego, Calif., USA). These cells were originally designed for studying the stimulation of human TLR7 by monitoring the activation of NE-κB. A SEAP (secreted embryonic alkaline phosphatase) reporter gene was placed under the control of the IFN-β minimal promoter fused to five NE-κB and AP-1-binding sites. The SEAP was induced by activating NE-κB and AP-1 via stimulating HEK-Blue hTLR7 cells with TLR7 ligands. Therefore the reporter expression was declined by TLR7 antagonist under the stimulation of a ligand, such as R848 (Resiquimod), for incubation of 20 hrs. The cell culture supernatant SEAP reporter activity was determined using QUANTI-Blue™ kit (Cat. #: rep-qbl, Invivogen, San Diego, Ca, USA) at a wavelength of 640 nm, a detection medium that turns purple or blue in the presence of alkaline phosphatase.
HEK293-Blue-hTLR7 cells were incubated at a density of 250,000-450,000 cells/mL in a volume of 170 μL in a 96-well plate in Dulbecco's Modified Eagle's medium (DMEM) containing 4.5 g/L glucose, 50 U/mL penicillin, […], […], 2 mM L-glutamine, 10% (v/v) heat-inactivated fetal bovine serum with addition of 20 μL test compound in a serial dilution in the presence of final DMSO at 1% and 10 μL of 20 uM R848 in above DMEM, perform incubation under 37° C. in a CO2 incubator for 20 hrs. Then 20 μL of the supernatant from each well was incubated with 180 μL Quanti-blue substrate solution at 37° C. for 2 hrs and the absorbance was read at 620˜655 nm using a spectrophotometer. The signalling pathway that TLR7 activation leads to downstream NE-κB activation has been widely accepted, and therefore similar reporter assay was modified for evaluating TLR7 antagonist.

Compound Cc1cc(N2CC3(CN(C[C@H]4CN(c5ccc(C#N)c6ncccc56)C[C@@H](C)O4)C3)C2)cc(C(C)O)n1 (stereo partly drawn) [Example 44, 5-[(2S,6R)-2-[[2-[2-(1-hydroxyethyl)-6-methyl-4-pyridyl]-2,6-diazaspiro[3.3]heptan-6-yl]methyl]-6-methyl-morpholin-4-yl]quinoline-8-carbonitrile] has a pIC50 of 7.70.
In the case of C[C@@H]1CN(c2ccc(C#N)c3ncccc23)C[C@H](CN2CCN(c3cc(N)nc(CO)c3)CC2)O1 [Example 45, 5-[(2S,6R)-2-[[4-[2-amino-6-(hydroxymethyl)-4-pyridyl]piperazin-1-yl]methyl]-6-methyl-morpholin-4-yl]quinoline-8-carbonitrile], the pIC50 was 7.41.
CC(O)c1cc(N2CC3(CN(C[C@H]4CN(c5ccc(C#N)c6ncccc56)C[C@@H](C)O4)C3)C2)ccn1 (stereo partly drawn) [Example 46, 5-[(2S,6R)-2-[[2-[2-(1-hydroxyethyl)-4-pyridyl]-2,6-diazaspiro[3.3]heptan-6-yl]methyl]-6-methyl-morpholin-4-yl]quinoline-8-carbonitrile] showed a pIC50 of 7.49.
With C[C@@H]1CN(c2ccc(C#N)c3ncccc23)C[C@H](CN2CC3(C2)CN(c2ccnc(C(C)(C)O)c2)C3)O1 [Example 48, 5-[(2S,6R)-2[[2-[2-(1-hydroxy-1-methyl-ethyl)-4-pyridyl]-2,6-diazaspiro[3.3]heptan-6-yl]methyl]-6-methyl-morpholin-4-yl]quinoline-8-carbonitrile] the pIC50 was 7.26.
Compound C[C@@H]1CN(c2ccc(C#N)c3ncccc23)C[C@H](CN2CC3(C2)CN(c2ccnc(C4CC4)c2)C3)O1 [Example 49, 5-[(2S,6R)-2[[2-(2-cyclopropyl-4-pyridyl)-2,6-diazaspiro[3.3]heptan-6-yl]methyl]-6-methyl-morpholin-4-yl]quinoline-8-carbonitrile] has a pIC50 of 7.89.
Cc1cc(N2CCN(C[C@H]3CN(c4ccc(C#N)c5ncccc45)C[C@@H](C)O3)CC2)cc(CO)n1 [Example 50] gave a pIC50 of 8.00.
Work on C[C@@H]1CN(c2ccc(C#N)c3ncccc23)C[C@H](CN2CC3(C2)CN(c2ccnc(CO)c2)CCO3)O1 [Example 51] yielded a pIC50 greater than 8.52.
